Molecules are shown by their SMILES. A value given as a limit tells only on which side of the number the result lay.

For data set [1], the target named is T1, Bromodomain-containing protein 4 (Homo sapiens, UniProt O60885). In words: Binding affinity to His-tagged BRD4 BD1-BD2 (K57 to K550 residues) (unknown origin) after 1 hr by Alexa-647-conjugated probe based TR-FRET assay. (Time-resolved FRET reads energy transfer from a long-lived donor to a nearby acceptor.)
In data set [2] the target is T2, E3 ubiquitin-protein ligase TRIM33 (Homo sapiens, UniProt Q9UPN9).
T2 sequence (Q9UPN9 whole entry): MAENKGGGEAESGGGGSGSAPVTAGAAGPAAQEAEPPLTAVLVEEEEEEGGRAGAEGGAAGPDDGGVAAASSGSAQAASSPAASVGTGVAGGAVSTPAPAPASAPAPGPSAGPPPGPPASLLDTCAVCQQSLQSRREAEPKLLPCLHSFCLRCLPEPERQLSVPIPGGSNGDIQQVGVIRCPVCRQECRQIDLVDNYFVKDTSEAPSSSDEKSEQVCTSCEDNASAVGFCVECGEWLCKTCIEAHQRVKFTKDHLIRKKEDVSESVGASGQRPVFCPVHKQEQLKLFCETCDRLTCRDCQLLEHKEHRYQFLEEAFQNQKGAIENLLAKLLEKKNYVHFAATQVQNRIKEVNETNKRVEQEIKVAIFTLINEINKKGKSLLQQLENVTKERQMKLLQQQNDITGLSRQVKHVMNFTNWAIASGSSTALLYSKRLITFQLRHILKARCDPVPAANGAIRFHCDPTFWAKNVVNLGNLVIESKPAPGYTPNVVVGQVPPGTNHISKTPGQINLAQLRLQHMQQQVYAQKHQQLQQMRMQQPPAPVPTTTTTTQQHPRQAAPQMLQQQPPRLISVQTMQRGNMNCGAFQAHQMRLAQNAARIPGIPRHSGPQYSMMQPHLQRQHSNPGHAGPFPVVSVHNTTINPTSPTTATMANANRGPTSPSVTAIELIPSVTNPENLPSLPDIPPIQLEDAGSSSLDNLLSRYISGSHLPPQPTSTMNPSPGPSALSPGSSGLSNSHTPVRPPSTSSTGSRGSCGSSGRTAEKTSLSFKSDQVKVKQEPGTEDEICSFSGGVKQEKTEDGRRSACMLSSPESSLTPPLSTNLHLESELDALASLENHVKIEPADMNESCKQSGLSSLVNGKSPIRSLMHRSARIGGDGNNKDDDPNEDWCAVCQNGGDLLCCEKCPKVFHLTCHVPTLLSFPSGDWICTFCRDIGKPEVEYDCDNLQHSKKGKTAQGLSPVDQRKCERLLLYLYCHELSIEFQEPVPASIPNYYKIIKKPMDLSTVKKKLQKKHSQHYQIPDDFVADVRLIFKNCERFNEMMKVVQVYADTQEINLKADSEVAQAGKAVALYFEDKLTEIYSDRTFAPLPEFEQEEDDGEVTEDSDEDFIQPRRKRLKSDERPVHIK
Description: Inhibition of human TRIM33-phd-bromo (D882 to A1087 residues) expressed in bacterial expression system by BROMOscan assay.

For a further data set, the target named is Protein polybromo-1 (Homo sapiens, UniProt Q86U86). Description: Inhibition of human PBRM1 bromodomain 2 (S178 to E291 residues) expressed in bacterial expression system by BROMOscan assay.
Sequence of Protein polybromo-1 (Q86U86 whole entry, the tested form may be a part): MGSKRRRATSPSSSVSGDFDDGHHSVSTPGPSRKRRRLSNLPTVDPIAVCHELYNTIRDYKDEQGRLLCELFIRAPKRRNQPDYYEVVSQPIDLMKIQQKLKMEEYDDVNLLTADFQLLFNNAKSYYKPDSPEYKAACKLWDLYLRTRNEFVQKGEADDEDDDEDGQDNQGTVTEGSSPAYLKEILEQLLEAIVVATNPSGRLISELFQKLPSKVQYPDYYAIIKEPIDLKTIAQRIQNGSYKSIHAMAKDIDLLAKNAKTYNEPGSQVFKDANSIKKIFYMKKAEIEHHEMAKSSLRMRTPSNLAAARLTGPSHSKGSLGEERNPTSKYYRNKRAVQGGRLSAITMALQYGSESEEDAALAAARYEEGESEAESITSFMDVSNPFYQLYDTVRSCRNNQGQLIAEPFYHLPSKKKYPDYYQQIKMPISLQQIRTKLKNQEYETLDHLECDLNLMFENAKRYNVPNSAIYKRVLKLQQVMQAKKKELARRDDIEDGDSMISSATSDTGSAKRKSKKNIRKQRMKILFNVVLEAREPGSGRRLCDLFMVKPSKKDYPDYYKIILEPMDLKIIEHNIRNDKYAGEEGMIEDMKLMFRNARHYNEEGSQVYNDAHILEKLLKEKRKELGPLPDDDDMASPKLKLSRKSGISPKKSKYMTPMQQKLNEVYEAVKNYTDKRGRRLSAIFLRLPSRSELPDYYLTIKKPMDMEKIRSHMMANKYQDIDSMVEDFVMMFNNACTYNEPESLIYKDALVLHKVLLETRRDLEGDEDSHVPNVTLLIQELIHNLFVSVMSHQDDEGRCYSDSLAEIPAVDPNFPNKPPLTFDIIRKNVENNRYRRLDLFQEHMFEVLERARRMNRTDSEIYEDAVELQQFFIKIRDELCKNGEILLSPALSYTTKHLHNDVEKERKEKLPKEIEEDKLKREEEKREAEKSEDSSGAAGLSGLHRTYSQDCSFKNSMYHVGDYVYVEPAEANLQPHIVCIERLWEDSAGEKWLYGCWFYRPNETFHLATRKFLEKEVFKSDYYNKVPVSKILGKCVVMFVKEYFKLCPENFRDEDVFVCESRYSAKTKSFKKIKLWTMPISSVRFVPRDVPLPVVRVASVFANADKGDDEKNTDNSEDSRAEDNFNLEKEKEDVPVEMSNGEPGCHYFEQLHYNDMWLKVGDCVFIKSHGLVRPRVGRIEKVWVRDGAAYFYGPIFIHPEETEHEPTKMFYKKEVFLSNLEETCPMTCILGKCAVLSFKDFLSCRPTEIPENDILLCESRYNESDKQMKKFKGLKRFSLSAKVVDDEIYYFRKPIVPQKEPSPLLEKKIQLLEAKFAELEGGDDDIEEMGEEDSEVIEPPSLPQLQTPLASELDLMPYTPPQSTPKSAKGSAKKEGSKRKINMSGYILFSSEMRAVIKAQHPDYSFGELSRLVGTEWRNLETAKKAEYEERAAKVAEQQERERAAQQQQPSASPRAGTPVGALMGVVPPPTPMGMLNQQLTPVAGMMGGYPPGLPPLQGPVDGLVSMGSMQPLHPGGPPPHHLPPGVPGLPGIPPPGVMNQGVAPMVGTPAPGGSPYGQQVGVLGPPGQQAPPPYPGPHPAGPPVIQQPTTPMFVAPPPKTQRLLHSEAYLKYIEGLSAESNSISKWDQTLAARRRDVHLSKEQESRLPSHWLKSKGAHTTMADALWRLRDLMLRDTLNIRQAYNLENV
The target in data set [3] is T3, Bromodomain and PHD finger-containing protein 3 (Homo sapiens, UniProt Q9ULD4).
T3 sequence (Q9ULD4 whole entry): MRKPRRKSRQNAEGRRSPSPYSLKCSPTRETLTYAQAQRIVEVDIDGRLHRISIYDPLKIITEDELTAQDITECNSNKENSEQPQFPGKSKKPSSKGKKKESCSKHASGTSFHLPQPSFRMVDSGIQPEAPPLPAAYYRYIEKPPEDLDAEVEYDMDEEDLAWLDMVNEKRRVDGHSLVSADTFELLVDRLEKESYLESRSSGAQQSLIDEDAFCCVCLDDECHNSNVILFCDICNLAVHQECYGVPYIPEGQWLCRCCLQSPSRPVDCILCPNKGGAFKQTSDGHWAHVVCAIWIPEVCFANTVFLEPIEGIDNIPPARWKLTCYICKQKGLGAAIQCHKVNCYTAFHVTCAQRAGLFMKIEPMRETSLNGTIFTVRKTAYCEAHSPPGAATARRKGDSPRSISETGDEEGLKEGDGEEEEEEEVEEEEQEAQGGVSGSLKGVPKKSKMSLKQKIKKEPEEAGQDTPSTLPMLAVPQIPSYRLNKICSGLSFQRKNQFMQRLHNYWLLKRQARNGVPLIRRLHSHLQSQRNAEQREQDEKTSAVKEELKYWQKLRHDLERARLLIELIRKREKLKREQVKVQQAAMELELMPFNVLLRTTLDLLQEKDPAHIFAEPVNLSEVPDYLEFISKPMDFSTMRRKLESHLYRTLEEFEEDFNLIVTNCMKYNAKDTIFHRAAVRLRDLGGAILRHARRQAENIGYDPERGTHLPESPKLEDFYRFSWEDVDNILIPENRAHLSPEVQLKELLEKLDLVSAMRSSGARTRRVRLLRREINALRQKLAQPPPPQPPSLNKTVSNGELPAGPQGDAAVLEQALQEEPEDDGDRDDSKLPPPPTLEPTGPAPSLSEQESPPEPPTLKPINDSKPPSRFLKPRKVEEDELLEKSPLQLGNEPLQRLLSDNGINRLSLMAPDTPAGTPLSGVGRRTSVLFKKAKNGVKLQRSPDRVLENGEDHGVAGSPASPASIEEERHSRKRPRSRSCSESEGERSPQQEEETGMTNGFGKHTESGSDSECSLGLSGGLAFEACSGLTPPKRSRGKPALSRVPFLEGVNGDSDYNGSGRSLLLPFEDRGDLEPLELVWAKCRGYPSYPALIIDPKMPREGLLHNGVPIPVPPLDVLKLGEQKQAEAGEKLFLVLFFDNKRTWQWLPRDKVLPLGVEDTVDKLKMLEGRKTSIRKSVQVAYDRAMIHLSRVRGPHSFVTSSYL
Description: Inhibition of human BRPF3 (E588 to G701 residues) expressed in bacterial expression system by BROMOscan assay.

For data set [4], the target named is Bromodomain and WD repeat-containing protein 1 (Homo sapiens, UniProt Q9NSI6). In words: Inhibition of human WDR9 bromodomain 2 (A1310 to E1430 residues) expressed in bacterial expression system by BROMOscan assay.
Sequence of Bromodomain and WD repeat-containing protein 1 (Q9NSI6 whole entry, the tested form may be a part): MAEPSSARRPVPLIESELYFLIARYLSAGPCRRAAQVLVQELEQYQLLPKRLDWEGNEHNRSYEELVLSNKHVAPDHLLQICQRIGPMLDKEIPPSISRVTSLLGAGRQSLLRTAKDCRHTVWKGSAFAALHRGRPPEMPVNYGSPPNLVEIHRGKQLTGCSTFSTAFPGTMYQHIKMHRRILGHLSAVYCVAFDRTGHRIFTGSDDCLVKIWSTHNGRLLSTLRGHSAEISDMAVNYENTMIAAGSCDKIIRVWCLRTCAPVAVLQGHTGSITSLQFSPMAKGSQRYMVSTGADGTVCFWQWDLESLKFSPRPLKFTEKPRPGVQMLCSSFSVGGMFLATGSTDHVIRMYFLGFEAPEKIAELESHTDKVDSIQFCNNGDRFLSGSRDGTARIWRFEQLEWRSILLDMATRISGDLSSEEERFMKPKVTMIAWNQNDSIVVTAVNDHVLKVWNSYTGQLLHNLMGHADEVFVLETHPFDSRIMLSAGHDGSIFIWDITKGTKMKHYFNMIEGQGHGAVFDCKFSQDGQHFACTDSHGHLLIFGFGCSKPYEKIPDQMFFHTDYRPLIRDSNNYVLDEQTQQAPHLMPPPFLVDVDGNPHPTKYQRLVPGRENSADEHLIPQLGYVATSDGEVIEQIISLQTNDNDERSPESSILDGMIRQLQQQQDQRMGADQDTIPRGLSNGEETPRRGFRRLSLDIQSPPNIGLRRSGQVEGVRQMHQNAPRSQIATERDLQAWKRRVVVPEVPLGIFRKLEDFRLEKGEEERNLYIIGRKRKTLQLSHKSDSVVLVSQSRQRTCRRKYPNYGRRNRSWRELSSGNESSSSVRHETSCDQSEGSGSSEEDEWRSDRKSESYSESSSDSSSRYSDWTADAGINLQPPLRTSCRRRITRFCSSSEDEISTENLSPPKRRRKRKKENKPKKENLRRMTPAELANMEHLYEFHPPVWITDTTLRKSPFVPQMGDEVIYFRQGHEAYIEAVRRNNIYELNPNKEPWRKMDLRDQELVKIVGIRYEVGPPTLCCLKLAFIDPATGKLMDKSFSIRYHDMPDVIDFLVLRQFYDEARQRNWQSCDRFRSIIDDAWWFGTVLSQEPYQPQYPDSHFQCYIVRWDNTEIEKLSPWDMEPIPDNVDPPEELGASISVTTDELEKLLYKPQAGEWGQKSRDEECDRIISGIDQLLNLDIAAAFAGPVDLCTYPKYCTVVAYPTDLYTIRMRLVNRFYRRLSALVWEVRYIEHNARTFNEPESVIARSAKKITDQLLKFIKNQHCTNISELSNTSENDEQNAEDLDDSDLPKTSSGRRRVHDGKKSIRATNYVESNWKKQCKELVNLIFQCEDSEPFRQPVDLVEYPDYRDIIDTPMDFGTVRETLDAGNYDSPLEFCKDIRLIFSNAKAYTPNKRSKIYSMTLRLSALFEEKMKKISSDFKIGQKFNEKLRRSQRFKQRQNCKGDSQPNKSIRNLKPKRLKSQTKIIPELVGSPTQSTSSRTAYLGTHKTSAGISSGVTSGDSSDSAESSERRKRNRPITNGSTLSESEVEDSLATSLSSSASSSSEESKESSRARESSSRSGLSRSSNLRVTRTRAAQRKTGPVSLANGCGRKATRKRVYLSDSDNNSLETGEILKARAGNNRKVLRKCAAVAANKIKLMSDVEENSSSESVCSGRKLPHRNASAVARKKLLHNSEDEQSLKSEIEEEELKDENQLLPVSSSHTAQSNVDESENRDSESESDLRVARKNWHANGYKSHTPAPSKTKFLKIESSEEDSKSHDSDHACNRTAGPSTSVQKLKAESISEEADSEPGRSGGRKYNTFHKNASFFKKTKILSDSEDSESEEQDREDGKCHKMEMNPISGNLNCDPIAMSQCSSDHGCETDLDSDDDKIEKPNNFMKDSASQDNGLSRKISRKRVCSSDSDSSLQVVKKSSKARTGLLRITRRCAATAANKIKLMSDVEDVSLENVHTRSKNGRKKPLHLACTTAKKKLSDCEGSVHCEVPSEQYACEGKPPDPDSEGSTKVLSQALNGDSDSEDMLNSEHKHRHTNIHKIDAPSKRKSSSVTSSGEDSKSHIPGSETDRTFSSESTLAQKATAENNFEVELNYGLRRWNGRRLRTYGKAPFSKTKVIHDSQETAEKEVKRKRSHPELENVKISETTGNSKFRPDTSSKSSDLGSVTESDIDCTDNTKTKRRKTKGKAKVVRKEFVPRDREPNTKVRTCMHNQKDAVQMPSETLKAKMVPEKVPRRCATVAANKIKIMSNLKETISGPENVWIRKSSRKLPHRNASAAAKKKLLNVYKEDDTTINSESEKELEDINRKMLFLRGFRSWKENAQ
The subject of another data set is Liver. In words: Unbound intrinsic clearance in mouse liver microsomes. The format is ADME, microsome.
For data set [5], the target named is Bromodomain testis-specific protein (Homo sapiens, UniProt Q58F21). Description: Binding affinity to BRDT BD1-BD2 (N21 to P380 residues) (unknown origin) after 1 hr by Alexa-647-conjugated probe based TR-FRET assay.
Data set [6] concerns the target T1, Bromodomain-containing protein 4. Description: Binding affinity to BRD4 BD2 (E352 to M457 residues) (unknown origin) expressed in Escherichia coli BL21 (DE3) after 1 hr by Alexa-647-conjugated probe based TR-FRET assay.
The subject of a further data set is Plasma. In words: Unbound clearance in mouse plasma at 3 mg/kg, iv. The format is ADME, organism-based. The settings on record: in vivo.
Data set [7] can be described thus: Permeability of the compound. The settings on record: not told; read-out: permeability. The data set is classed as physicochemical.
The nature of data set [8]: Oral bioavailability in mouse at 10 mg/kg. The data set is classed as ADME, organism-based. The settings on record: in vivo.
Data set [9] deals with T1, Bromodomain-containing protein 4. Description: Binding affinity to BRD4 BD1 (K57 to E168 residues) (unknown origin) after 1 hr by Alexa-647-conjugated probe based TR-FRET assay.

A word on the Ki: it is the dissociation constant of the complex between target and ligand, obtained from inhibition or displacement. The term IC50 denotes the concentration needed to halve the response being measured. A word on the bioavailability: it is the share of a dose that reaches the circulation, judged against a reference dose that is usually intravenous. Read a high bioavailability as good availability. Consider `Cn1cc(-c2cc(S(C)(=O)=O)ccc2Oc2ccc(F)cc2F)c2cc[nH]c(=O)c21`, for which the Ki in [1] came to 98 nM; in data set [5], 490 nM; in data set [6], 280 nM; in data set [9], 77 nM. In addition, the IC50 (in [2]; against Protein polybromo-1; in data set [3]; in data set [4]) was greater than 10 µM each time. Also, the CL free in the data set with Liver is 12 L/h/kg; in the data set on Plasma, 16 L/h/kg. Besides, the Papp in data set [7] was 35 ×10⁻⁶ cm/s. This compound also displayed a bioavailability in data set [8] of 57%.

In the case of `Cc1[nH]c(-c2cc(S(C)(=O)=O)ccc2Oc2ccc(F)cc2F)c2c1C(=O)NCC2`, the Ki in data set [1] was determined as 300 nM; in data set [5] it was 140 nM; in data set [6] it was 38 nM; in [9], 34 nM. In addition, the IC50 (in [2]; on Protein polybromo-1; in data set [3]; in [4]) was greater than 10 µM throughout. Also, the CL free was less than 6.9 L/h/kg in the data set on Liver and 14 L/h/kg with Plasma. The Papp in data set [7] was determined as 22 ×10⁻⁶ cm/s. The same compound returned a bioavailability in data set [8] of 32%.

With `Cc1[nH]c(-c2cc(NS(C)(=O)=O)ccc2Oc2ccccc2)c2c1C(=O)CCC2`, the Ki came to 33 nM in data set [1], 110 nM in [5], 38 nM in data set [6] and 18 nM in [9]. Besides, the IC50 in data set [2] was greater than 10 µM; against Protein polybromo-1 it was greater than 10 µM; in data set [3], greater than 10 µM; in data set [4] it was 10 µM. Besides, the CL free with Liver came out at 55 L/h/kg; in the data set on Plasma, 84 L/h/kg. In addition, the Papp in [7] was 27 ×10⁻⁶ cm/s. The bioavailability in data set [8] came to 30%.

The values are drawn from ChEMBL document CHEMBL4038268, “Methylpyrrole inhibitors of BET bromodomains” (Bioorg Med Chem Lett, 2017).
